Assay [1] deals with L929 cells. As to the kind of experiment: Neutral red cell viability assay of L929 cells treated with TNFα and/or bFGF. The assay is classed as cell-based, murine. Conditions: L929 cells. As for the experimental part: In panel A cells were treated with the indicated concentrations of TNFα for 15 hours and were assayed for uptake of neutral red. In panel B cells were untreated (solid bars), treated with 0.5 ng/ml bFGF (dotted bars) or 5.0 ng/ml bFGF (hatched bars) and the indicated concentrations of TNFα for 18 hours. Cell viability was assessed by neutral red assay.
In panel A serum starved L929 cells were untreated or treated for 1 hour at 37° C. with the MEK-1 inhibitor (PD) and then unstimulated or stimulated with bFGF. MAPK activity was measured. In panel B L929 cells were untreated or treated for 1 hour at 37° C. with PD and then were untreated or treated with TNFα alone or in combination with bFGF for 18 hours. Cell viability was assessed by neutral red assay.
Cell lines and culture. L929 cells (ATCC CCL1 were maintained in Dulbecco's modified Eagle's medium with 5% newborn calf serum and 5% bovine calf serum (BCS) supplemented with 100 ug/ml streptomycin and 100 U/ml penicillin. The cells were grown in 10 cm dishes at 37° C. in 7.5% CO2. Cells were made quiescent where indicated by incubation in Dulbecco's modified Eagle's medium and 0.1% bovine serum albumin for 24 h. Recombinant murine TNFα and recombinant human bFGF (147aa) were from R&D Systems, Minneapolis, Minn. Cells were pretreated where indicated with the MEK-1 inhibitor PD#098059 (Parke-Davis Pharmaceutical Corp. Ann Arbor, Mich.) for 1 h at 37° C. Cells were stimulated by incubation with the indicated cytokine or growth factor for various times at 37° C. Stimulation was stopped by rinsing the plates twice with ice cold phosphate buffered saline (PBS) and lysing the cells in the appropriate lysis buffer. Cells were scraped from the plates and nuclei were pelleted for 10 min at 14,000 RPM in a microcentrifuge. JNK assay. JNK activity was measured using a solid state kinase assay in which glutathione S-transferase-c-Jun (1-79) (GST-JUN) cound to glutathione-Sepharose 4B beads was used to affinity purify JNK and then JNK activity was measured in an in vitro kinase assay using the sepharose bound GST-Jun as a substrate (Hibi, M., et al. (1993) Genes & Development 7:2135-2148). Stimulated or unstimulated cells were lysed in 0.5% Nonidet P-40, 20 mM HEPES pH 7.2, 100 mM NaCl, 2 mM dithiothreitol, 1 mM EDTA, 1.0 mM phenylmethylsulfonylfluoride, 1 μg/ml aprotinin and the nuclei pelleted. Lysates were normalized for protein content. JNK was affinity purified from 50-100 μg of cell lysate by the addition of 10 ul of GST-Jun sepharose slurry (2 μg GST-Jun). Binding to GST-Jun efficiently isolates the two major forms of JNK (p45 and p55) and under the conditions used JNK isolation was linear for 10-250 μg of cell lysate. The lysates were rotated at 4° C. for 1-3 h. Beads were washed twice in lysis buffer and then twice in PAN (10 mM PIPES, pH 7.0, 100 mM NaCl, 21 μg/ml aprotinin). Kinase reactions were carried out at 30° C. for 15 min in 20 mM Hepes pH 7.2, 20 mM β-glycerophosphate, 10 mM p-nitrophenyl phosphate, 10 mM MgCl2, 1 mM dithiothreitol, 50 μm sodium vanadate, 10 μCi γ^32P-ATP 4300 Ci/mmole. The kinase reaction was linear from 0-30 min. MAPK Assay MAPK activity was measured exactly as described previously (Gardner, A. M., et al. (1994) Meth. Enzymol. 238:258-270) with the exception that MonoQ FPLC fractionation was replaced by step elution from a DEAE-Sephacel column using 0.5 M NaCl in loading buffer. The eluate was assayed in triplicate using the epidermal growth factor receptor 662-681 peptide (EGFR662-681) as a selective substrate for MAPK activity (Heasley, L. E., et al. (1994) American Journal of Physiology (Renal Fluid Electrolyte Physiol. 36) 267:F366-F373). […]

Assay [2] deals with JNK. The assay is described as follows: JNK solid state kinase assay (GST-Jun) in L929 cells. The assay is classed as cell-based, murine. The conditions noted are these: not shown. How it is done: (§1) In panel A cells were treated for 10 minutes with the indicated concentration of TNFα. JNK activation was measured using a solid phase kinase assay resulting in phosphorylation of GST-Jun. In […] the time course of MAPK activation is shown. MAPK was isolated from cell lysates on DEAE sephacel columns and MAPK activation was measured by phosphorylation of the EGFR peptide substrate. Panel C depicts the concentration curve of MAPK activation by TNFα. Cells were treated with the indicated concentration of TNFα and MAPK was assayed.
(§2) Cell lines and culture. L929 cells (ATCC CCL1 were maintained in Dulbecco's modified Eagle's medium with 5% newborn calf serum and 5% bovine calf serum (BCS) supplemented with 100 ug/ml streptomycin and 100 U/ml penicillin. The cells were grown in 10 cm dishes at 37° C. in 7.5% CO2. Cells were made quiescent where indicated by incubation in Dulbecco's modified Eagle's medium and 0.1% bovine serum albumin for 24 h. Recombinant murine TNFα and recombinant human bFGF (147aa) were from R&D Systems, Minneapolis, Minn. Cells were pretreated where indicated with the MEK-1 inhibitor PD#098059 (Parke-Davis Pharmaceutical Corp. Ann Arbor, Mich.) for 1 h at 37° C. Cells were stimulated by incubation with the indicated cytokine or growth factor for various times at 37° C. Stimulation was stopped by rinsing the plates twice with ice cold phosphate buffered saline (PBS) and lysing the cells in the appropriate lysis buffer. Cells were scraped from the plates and nuclei were pelleted for 10 min at 14,000 RPM in a microcentrifuge. JNK assay. JNK activity was measured using a solid state kinase assay in which glutathione S-transferase-c-Jun (1-79) (GST-JUN) cound to glutathione-Sepharose 4B beads was used to affinity purify JNK and then JNK activity was measured in an in vitro kinase assay using the sepharose bound GST-Jun as a substrate (Hibi, M., et al. (1993) Genes & Development 7:2135-2148). Stimulated or unstimulated cells were lysed in 0.5% Nonidet P-40, 20 mM HEPES pH 7.2, 100 mM NaCl, 2 mM dithiothreitol, 1 mM EDTA, 1.0 mM phenylmethylsulfonylfluoride, 1 μg/ml aprotinin and the nuclei pelleted. Lysates were normalized for protein content. JNK was affinity purified from 50-100 μg of cell lysate by the addition of 10 ul of GST-Jun sepharose slurry (2 μg GST-Jun). Binding to GST-Jun efficiently isolates the two major forms of JNK (p45 and p55) and under the conditions used JNK isolation was linear for 10-250 μg of cell lysate. The lysates were rotated at 4° C. for 1-3 h. Beads were washed twice in lysis buffer and then twice in PAN (10 mM PIPES, pH 7.0, 100 mM NaCl, 21 μg/ml aprotinin). Kinase reactions were carried out at 30° C. for 15 min in 20 mM Hepes pH 7.2, 20 mM β-glycerophosphate, 10 mM p-nitrophenyl phosphate, 10 mM MgCl2, 1 mM dithiothreitol, 50 μm sodium vanadate, 10 μCi γ^32P-ATP 4300 Ci/mmole. The kinase reaction was linear from 0-30 min. MAPK Assay MAPK activity was measured exactly as described previously (Gardner, A. M., et al. (1994) Meth. Enzymol. 238:258-270) with the exception that MonoQ FPLC fractionation was replaced by step elution from a DEAE-Sephacel column using 0.5 M NaCl in loading buffer. The eluate was assayed in triplicate using the epidermal growth factor receptor 662-681 peptide (EGFR662-681) as a selective substrate for MAPK activity (Heasley, L. E., et al. (1994) American Journal of Physiology (Renal Fluid Electrolyte Physiol. 36) 267:F366-F373). […] Cells were lysed by scraping in ice cold RIPA buffer (50 mM Tris-HCl, pH 7.2, 150 mM NaCl, 0.1% SDS, 0.5% sodium deoxycholate, 1.0% Triton X-100, 10 mM sodium pyrophosphate, 25 mM β-glycerophosphate, 2 mM sodium vanadate, 2.1 μg/ml aprotinin) and the nuclei were pelletted. […]

The test system of assay [3] is p42/p44 MAPK. The assay is described as follows: MAPK assay (DEAE-Sephacel, EGFR662-681 peptide) in L929 cells. The assay is classed as cell-based, murine. The conditions noted are these: L929 cells. As for the experimental part: as §1
FIG. 26 depicts the activation of MAPK by bFGF in L929 cells. Serum starved L929 cells were stimulated for 10 min with the indicated concentration of bFGF.
as §2

The target in assay [4] is MEK-1 (Homo sapiens, UniProt Q02750). The conditions noted are these: Alessi et al. 1995; cited from earlier work.

These results are taken from US20080201790A1, “Method and product for regulating cell responsiveness to external signals” (priority 1993, published 2008).

MEK-1, sequence (Q02750 whole entry, species assumed): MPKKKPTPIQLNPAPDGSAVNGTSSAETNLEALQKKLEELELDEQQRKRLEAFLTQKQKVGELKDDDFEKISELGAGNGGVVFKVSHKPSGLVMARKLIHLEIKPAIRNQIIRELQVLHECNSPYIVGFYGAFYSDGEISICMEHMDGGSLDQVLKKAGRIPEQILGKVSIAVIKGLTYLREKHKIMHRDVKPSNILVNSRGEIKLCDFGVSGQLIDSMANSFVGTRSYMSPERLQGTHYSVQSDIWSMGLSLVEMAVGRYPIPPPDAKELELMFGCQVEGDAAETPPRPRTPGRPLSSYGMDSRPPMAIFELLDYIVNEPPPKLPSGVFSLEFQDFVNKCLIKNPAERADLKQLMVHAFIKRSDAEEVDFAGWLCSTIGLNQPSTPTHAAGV

In the case of `COc1cccc(-c2cc(=O)c3ccccc3o2)c1N` [PD #098059, reference compound], in assay [1], the “effect on TNFα-mediated cell death” value is on record as “had no effect on TNFα-mediated apoptosis” and the “effect on the protective action of bFGF against TNFα” value was “inhibited the protective action of bFGF”. Further, the “inhibition of JNK kinase / activation of JNK” value in assay [2] is given as “did not inhibit JNK kinase or the activation of JNK”. The “effect on bFGF stimulation of MAPK activity” value in assay [3] was “inhibited bFGF stimulation of MAPK activity”. Besides, the “inhibition of MEK-1” value in assay [4] is “inhibits the dual specificity protein kinase, MEK-1”.
